{
  "source": "patent US7135292B2",
  "about": "“Analysis and modification of gene expression in marine invertebrate cells” (Harbor Branch Oceanographic Institution, Inc., priority 2002, dated 2006)",
  "tested_on": "Axinella corrugata cell cultures",
  "experiment": "Human-sequence microarray (Gene Filters) analysis of gene expression, PHA-treated vs untreated sponge cell cultures",
  "assay_type": "cell-based",
  "conditions": "PHA treated/untreated, 12 h",
  "excerpt": "Sponge Cells. Cells were obtained from cryopreserved stocks at Harbor Branch Oceanographic Institution. All cells were derived from Axinella corrugata specimens collected in the waters of Florida, the Bahamas, and the Caribbean Sea, and were cryopreserved according to Pomponi et al. (Pomponi et al. 1997b supra). This sponge is relatively common and easy to collect, amenable to culture efforts, and produces the bioactive compound, stevensine, in vitro (Pomponi et al. 1997b supra). Enriched fractions of dissociated sponge cells were prepared, cryopreserved, and thawed according to previously published methods (Pomponi et al. 1997b supra). Cells were incubated at 22–25° C. in a growth medium consisting of a modified and supplemented commercial formulation (Willoughby and Pomponi 2000 supra). The length of the incubation period was based on my unpublished observation of elevated DNA and protein contents (9%, P=0.034, and 9%, P=0.038, respectively) in PHA-treated cultures, according to fluorescent assays of 6 replicate comparisons (Willoughby and Pomponi 2000 supra). Since the effects were observed between 6 and 18 hours after treatment, cells were cultured for 12-hour periods representing the center point of the period of observed changes. Two sets of cultures were incubated with approximately 2×10^8 cells per T-75 flask—a control set and an experimental set treated with 1.5% phytohemagglutinin (PHA) (Life Technologies, M-form).\nRNA Isolation. RNA isolation was performed on unrinsed, pelleted cells. Pellets were quickly frozen in a dry ice alcohol bath and stored at −70° C. until RNA isolation. The Qiagen RNeasy® protocol was used, with the following modifications. Samples were disrupted with a micropestle or homogenized by the rotor-stator method, using twice the recommended volume of lysis solution. Prior to column loading, samples were centrifuged through a Qiashredder® column to complete homogenization and remove insoluble material. Supernatant was collected for use in the rest of the protocol. During the first wash step, samples were incubated on the column with DNase 1 (Qiagen or Ambion) for 15 minutes. After the final wash, samples were incubated on the column with the RNase free elution water for 15 minutes prior to elution. Sub-samples were diluted 20× and quantified on a Genequant® spectrophotometer.\ncDNA Labeling. Sub-samples of the isolated total RNA (8 μl) were primed with oligo dT (10–20 mer) (Research Genetics, Inc.) for 10 minutes at 70° C., then briefly chilled on ice, followed by addition of 2 volumes of RT cocktail based upon the Life Technologies Superscript II® protocol (containing dATP, dGTP, dTTP, and α-^33P dCTP [NEN Easy Tides®, 3000 Ci/mmol]). The mixture was incubated for 90 minutes at 37° C., and diluted to 100 μl for purification on a Bio-Spin column (Boi-Rad) according to the Gene Filter® (Research Genetics, Inc.) recommended protocol. The resultant labeled probes were then denatured for 3 minutes in a boiling water bath prior to incorporation into the hybridization solution.\nMicroarrays. Research Genetics Gene Filters®, version 211, were employed in this study. These microarrays feature over 4000 distinct sequence-verified genes spotted onto a 5×7 cm nylon membrane. The DNA at each spot represents approximately 1 kb from the 3′ end of the gene. The microarrays also include spots of total genomic DNA (see FIG. 5). The 211 series is constructed from human sequences. A cross-referenced database listing of all the genes represented on the array is available at http://www.resgen.com. The 2 genes referenced in this work carry the I.M.A.G.E. Consortium (Lennon, G. G., C. Auffray, M. Polymeropoulos and M. B. Soares 1996, Genomics 33:151–152), Clone IDs 81408 (calcineurin B) and 858292 (cdc10).\nHybridization. […]",
  "data": [
    {"substance": "phytohemagglutinin [PHA]", "values": [
      {"measurement": "Ratio, MHC class II DQ-beta associated with DR2, DQw1 protein", "setting": "No. 1", "result": 0.492},
      {"measurement": "Ratio, Collagen, type II, alpha 1 (primary osteoarthritis, spondyloepiphyseal dysplasia, congenital)", "setting": "No. 2", "result": 0.384},
      {"measurement": "Ratio, Hemoglobin, alpha 1", "setting": "No. 3", "result": 0.157},
      {"measurement": "Ratio, Heat shock 60 kD protein 1 (chaperonin)", "setting": "No. 4", "result": 2.443},
      {"measurement": "Ratio, Interleukin 7 receptor", "setting": "No. 5", "result": 0.156},
      {"measurement": "Ratio, Cytochrome P450, subfamily IVA, polypeptide 11", "setting": "No. 6", "result": 0.310},
      {"measurement": "Ratio, Human metallothionein I-B gene", "setting": "No. 7", "result": 0.388},
      {"measurement": "Ratio, Homo sapiens NF-E2 protein (NF-E2) mRNA, complete cds", "setting": "No. 8", "result": 2.223},
      {"measurement": "Ratio, Tissue inhibitor of metalloproteinase 1 (erythroid potentiating activity, collagenase inhibitor)", "setting": "No. 9", "result": 0.252},
      {"measurement": "Ratio, Adenylate kinase 1", "setting": "No. 10", "result": 0.055},
      {"measurement": "Ratio, Oxytocin receptor", "setting": "No. 11", "result": 0.084},
      {"measurement": "Ratio, Homo sapiens mRNA for epiregulin, complete cds", "setting": "No. 12", "result": 0.101},
      {"measurement": "Ratio, Collagen, type V, alpha", "setting": "No. 13", "result": 0.137},
      {"measurement": "Ratio, MpV17 transgene, murine homolog, glomerulosclerosis", "setting": "No. 14", "result": 0.319},
      {"measurement": "Ratio, Tyrosine 3-monooxygenase/tryptophan 5-monooxygenase activation protein, zeta polypeptide", "setting": "No. 15", "result": 9.835},
      {"measurement": "Ratio, Von Hippel-Lindau syndrome", "setting": "No. 16", "result": 2.707},
      {"measurement": "Ratio, Homo sapiens TNF-alpha stimulated ABC protein (ABC50) mRNA, complete cds", "setting": "No. 17", "result": 3.865},
      {"measurement": "Ratio, Human brain mRNA for photolyase homolog, complete cds", "setting": "No. 18", "result": 2.486},
      {"measurement": "Ratio, Human BTG2 (BTG2) mRNA, complete cds", "setting": "No. 19", "result": 2.431},
      {"measurement": "Ratio, Membrane metallo-endopeptidase (neutral endopeptidase, enkephalinase, CALLA, CD10)", "setting": "No. 20", "result": 0.169},
      {"measurement": "Ratio, Calcineurin B", "setting": "No. 21", "result": 0.318},
      {"measurement": "Ratio, Cell division cycle 10 (homologous to CDC10 of S. cerevisiae)", "setting": "No. 22", "result": 2.302},
      {"measurement": "Ratio, Human renal cell carcinoma antigen RAGE-1 mRNA, complete putative cds", "setting": "No. 23", "result": 0.477},
      {"measurement": "Ratio, Homo sapiens putative OSP like protein mRNA, partial cds", "setting": "No. 24", "result": 0.491},
      {"measurement": "Ratio, H. sapiens mRNA for translin associated protein X", "setting": "No. 25", "result": 2.631},
      {"measurement": "Ratio, H. sapiens mRNA for phosphate cyclase", "setting": "No. 26", "result": 0.395},
      {"measurement": "Ratio, JNK activating kinase 1", "setting": "No. 27", "result": 0.170},
      {"measurement": "Ratio, Collagen, type IX, alpha 3", "setting": "No. 28", "result": 47.686},
      {"measurement": "Ratio, Non-catalytic region of tyrosine kinase", "setting": "No. 29", "result": 0.233},
      {"measurement": "Ratio, Triosephosphate isomerase 1", "setting": "No. 30", "result": 0.357},
      {"measurement": "Ratio, Calreticulin Precursor", "setting": "No. 31", "result": 12.868},
      {"measurement": "Ratio, Human transportin (TRN) mRNA, complete cds", "setting": "No. 32", "result": 3.328},
      {"measurement": "Ratio, Fanconi anemia complementation group C", "setting": "No. 33", "result": 0.342},
      {"measurement": "Ratio, Zinc finger protein basonuclin", "setting": "No. 34", "result": 0.417},
      {"measurement": "Ratio, Autosomal dominant polycystic kidney disease type II", "setting": "No. 35", "result": 0.224},
      {"measurement": "Ratio, Double-stranded RNA adenosine deaminase", "setting": "No. 36", "result": 0.456},
      {"measurement": "Ratio, Dual specificity protein phosphatase PAC-1", "setting": "No. 37", "result": 0.175},
      {"measurement": "Ratio, Homo sapiens Tax interaction protein 33 mRNA, partial cds", "setting": "No. 38", "result": 0.426},
      {"measurement": "Ratio, H. sapiens mRNA for M-phase phosphoprotein, mpp5", "setting": "No. 39", "result": 2.970},
      {"measurement": "Ratio, Nucleolysin TIA-1", "setting": "No. 40", "result": 0.430},
      {"measurement": "Ratio, Homo sapiens mRNA for ISLR, complete cds", "setting": "No. 41", "result": 12.597},
      {"measurement": "Ratio, H. sapiens mRNA for M130 antigen", "setting": "No. 42", "result": 0.443},
      {"measurement": "Ratio, Human tRNA-guanine transglycosylase mRNA, complete cds", "setting": "No. 43", "result": 0.213},
      {"measurement": "Ratio, Homo sapiens mRNA for vesicle associated membrane protein 2 (VAMP2)", "setting": "No. 44", "result": 3.925},
      {"measurement": "Ratio, Erythrocyte membrane protein band 4.9 (dematin)", "setting": "No. 45", "result": 0.408},
      {"measurement": "Ratio, 6-Pyruvol tetrahydrobiopterin synthase", "setting": "No. 46", "result": 0.440},
      {"measurement": "Ratio, Villin", "setting": "No. 47", "result": 0.008},
      {"measurement": "Ratio, Multidrug reistance protein 1", "setting": "No. 48", "result": 3.272},
      {"measurement": "Ratio, Human histone H2B.1 mRNA, 3′ end", "setting": "No. 49", "result": 0.247},
      {"measurement": "Ratio, Human heregulin-betal gene, complete cds", "setting": "No. 50", "result": 5.582},
      {"measurement": "Ratio, Amyloid P component, serum", "setting": "No. 51", "result": 3.994},
      {"measurement": "Ratio, Alternative guanine nucleotide-binding regulatory protein (G) alpha-inhibitory-subunit", "setting": "No. 52", "result": 0.462},
      {"measurement": "Ratio, Ribosomal protein S6 kinase, 90 kD, polypeptide 2", "setting": "No. 53", "result": 0.252},
      {"measurement": "Ratio, Interleukin 15 receptor alpha chain", "setting": "No. 54", "result": 3.996},
      {"measurement": "Ratio, Cadherin 11 (OB-cadherin)", "setting": "No. 55", "result": 0.425}
    ]}
  ]
}
